Experimental data reported in patent publication US20040131701A1, “Method to treat infectious diseases and/or to enhance antimicrobial efficacy of drugs” (Virocell Inc., priority 2000, published 2004).

Legend:
[1] = test system: recombinant luciferase-encoding virions (NL4-3 backbone) pseudotyped with T-tropic HXB-2D envelope; test: Infection of Jurkat cells with luciferase-encoding virions, HXB-2D envelope; assay type: cell-based, HIV-1; settings: 72 h
Description: (§1) Fully infectious viral entities were generated by calcium phosphate transfection of 293T with pNL4-3 vector (T-tropic virions) as described below. Recombinant luciferase-encoding virus particles pseudotyped with the appropriate Env proteins have been used in our series of investigations. […] This test is based on the molecular construct pNL4-3-Luc-E-R+, a vector that carries the gene for firefly luciferase inserted into the nef gene of the pNL4-3 provirus and contains also a frameshift at the 5′ end of env (nt 5950) that prevents expression of the envelope glycoproteins. Progeny viruses were generated by cotransfecting 293T cells with pNL4-3-Luc-E-R+ and a plasmid DNA encoding for the appropriate envelope glycoproteins (T or macrophage-tropic). Briefly, a typical transfection experiment was performed as follow. In brief, 293T cells were plated 24 h before transfection at a concentration of 5×10^5 cells per 3 ml of DMEM into each well of 6-well plates. All solutions were brought to room temperature before use. Immediately before transfection, DNA was added to 25 μl of 2.5M CaCl2 and the volume was completed to 250 μl with distilled water. This solution was then added drop by drop to 250 μl of 2×HBS solution (280 mM NaCl, 50 mM HEPES, 1.5 mM Na2HPO4, pH 7.05) and the resulting mixture was stored at room temperature for 5 min. This DNA-HBS mixture was finally added drop by drop to plated 293T cells before incubation at 37° C. under a 5% CO2atmosphere. At 16 h after transfection, cells were washed twice with 3 ml of PBS and were incubated for an additional 24 h with 3 ml of DMEM supplemented with 10% FBS. Virion-containing supernatants were filtered through a 0.45-μm cellulose acetate membrane (Millipore, Mass.), aliquoted in 200 μl fractions, and were finally frozen at −85° C. until needed. Virus stocks were normalized for virion content using a commercial assay for the viral major core protein p24 (Organon Teknika, Durham, N.C.).
(§2) In brief, 100 μl of cell-free supernatant were discarded from each well and 25 μl of cell culture lysis buffer 5×(125 mM Tris phosphate [pH 7.8], 10 mM DTT, 5% Triton X-100, and 50% glycerol) were added to the wells before incubation at room temperature for 30 min. An aliquot of cell lysate (20 μl) was mixed with 100 μl luciferase assay buffer (20 mM tricine, 1.07 mM (MgCO3)4. Mg(OH)2.5H2O, 2.67 mM MgSO4, 0.1 mM EDTA, 270 μM coenzyme A, 470 μM luciferin, 530 μM ATP, and 33.3 mM DTT). Luciferase activity was monitored using a microplate luminometer (MLX; Dynex Technologies, Chantilly, Va.).
We attempted to define any putative interaction (additive, synergistic or antagonistic) between bpV compounds and currently approved anti-HIV-1 agents (AZT/Zidovudine, 3TC/Epivir/Lamivudine). […]

[2] = test system: T-tropic strain HIV-1NL4-3; test: Replication of HIV-1 in Sup-T1 cells (p24 in culture supernatants); assay type: cell-based; settings: 10 days, all three tested concentrations
Description: (§3) Fully infectious viral entities were generated by calcium phosphate transfection of 293T with pNL4-3 vector (T-tropic virions) as described below. Recombinant luciferase-encoding virus particles pseudotyped with the appropriate Env proteins have been used in our series of investigations. Such a system provides a highly sensitive and reproducible assay to monitor single-cycle viral infection events. This test is based on the molecular construct pNL4-3-Luc-E-R+, a vector that carries the gene for firefly luciferase inserted into the nef gene of the pNL4-3 provirus and contains also a frameshift at the 5′ end of env (nt 5950) that prevents expression of the envelope glycoproteins. […]
Sup-T1 cells were seeded at a density of 10^5 cells per well (100 μl) in 96-well flat-bottom, plates. […] Cells were incubated for 10 days and kinetics of viral infection was assessed by measuring in cell-free culture supernatants the major core viral p24 protein with the use of a commercial enzymatic assay (Organon Teknika). Putative toxicity of bpV molecules was assessed by adding the tetrazolium salt MTT to Sup-T1 cells that were cultured for 10 days under the constant pressure of the indicated concentrations of bpV[pic] and bpV[phen] molecules.

[3] = test system: T-tropic recombinant luciferase-encoding HIV-1 particles; test: Infection of PM1 cells with luciferase reporter virus, T-tropic envelope; assay type: cell-based; settings: 5 min pretreatment, 72 h
Description: as §3, with “glycoproteins. Progeny viruses were generated by cotransfecting 293T cells with pNL4-3-Luc-E-R+ and a plasmid DNA encoding for the appropriate envelope glycoproteins (T or macrophage-tropic). Briefly, a typical transfection experiment was performed as follow.” for “glycoproteins.”
(§4) In brief, 100 μl of cell-free supernatant were discarded from each well and 25 μl of cell culture lysis buffer 5×(125 mM Tris phosphate [pH 7.8], 10 mM DTT, 5% Triton X-100, and 50% glycerol) were added to the wells before incubation at room temperature for 30 min. […] Luciferase activity was monitored using a microplate luminometer (MLX; Dynex Technologies, Chantilly, Va.). […]

[4] = test system: macrophage-tropic recombinant luciferase-encoding HIV-1 particles; test: Infection of PM1 cells with luciferase reporter virus, macrophage-tropic envelope; assay type: cell-based; settings: 5 min pretreatment, 72 h
Description: as §3, with “glycoproteins. Progeny viruses were generated by cotransfecting 293T cells with pNL4-3-Luc-E-R+ and a plasmid DNA encoding for the appropriate envelope glycoproteins (T or macrophage-tropic). Briefly, a typical transfection experiment was performed as follow.” for “glycoproteins.”
as §4

[5] = test system: recombinant luciferase-encoding virions (NL4-3 backbone) pseudotyped with macrophage-tropic ADA envelope; test: Infection of primary human MDM with luciferase-encoding virions, ADA envelope; assay type: cell-based, HIV-1; settings: 48 h; for anti-HIV-1 efficacy (luciferase activity): 10 μM bpV[pic] or 5 μM bpV[phen], pretreatment 5 to 120 min
Description: as §1, §2

primary human MDM = test: MTT toxicity in primary human MDM; assay type: cell-based; settings: 48 h
Description: Target cells used in the present invention include human CD4-expressing T lymphoid Sup-T1, PM1, and Jurkat cells. Moreover, primary human monocyte-derived macrophages (MDM) and peripheral blood mononuclear cells (PBMC′) were also used in the current work, MDM were obtained using a standard technique. In brief, the mononuclear cell fraction was isolated by Ficoll-Hypaque centrifugation. Peripheral blood mononuclear cells were suspended in seeding medium (RPMI 1640+20% fetal calf serum+10% human serum type AB) in tissue culture 48-well plates (3×10^6 cells/ml and 500 μl per well). Five days after the initiation of the cultures, nonadherent cells were removed by rinsing the cultures three times with phosphate buffered saline. Next, such adherent cells were maintained in RPMI 1640 medium supplemented with 20% fetal calf serum.
Putative toxicity of bpV[pic] and bpV[phen] molecules was next assessed by adding the tetrazolium salt MTT to primary human MDM that were cultured for 48 h under the constant pressure of the indicated concentrations of bpV compounds.

Sup-T1 cells = assay type: cell-based, human
Protocol: Sup-T1 cells were seeded at a density of 10^5 cells per well (100 μl) in 96-well flat-bottom, plates. Cells were either left untreated (control) or were pretreated for 5 min at 37° C. with the two different bpV molecules (bpV [pic] and bpV[phen]) at the indicated concentrations in a final volume of 200 μl. Next, both untreated and bpV-treated Sup-T1 cells were inoculated with the fully infectious T-tropic strain HIV-1NL4-3 (10 ng of p24). Culture medium was replaced twice a week and was supplemented with the appropriate final concentration of bpV molecules. Cells were incubated for 10 days and kinetics of viral infection was assessed by measuring in cell-free culture supernatants the major core viral p24 protein with the use of a commercial enzymatic assay (Organon Teknika). Putative toxicity of bpV molecules was assessed by adding the tetrazolium salt MTT to Sup-T1 cells that were cultured for 10 days under the constant pressure of the indicated concentrations of bpV[pic] and bpV[phen] molecules.

[6] = test system: Human peripheral blood mononuclear cells; test: HPLC analysis of phosphorylated forms of 3TC in PBMC's; assay type: cell-based; settings: 10 μM bpV[pic], 3TC at 5, 10 and 20 μM
Protocol: Analysis of the cellular content in 3TC and its phosphorylated metabolites was performed by HPLC as follows. In preparations for HPLC analysis, 1 ml of a mixture of acetonitrile/water (5/95, vol/vol) and 0.5 ml water were added to each sample. The samples were vortexed and centrifuged at 1000×g for 10 min at room temperature to remove the precipitated material. The supernatants were collected and used without further treatment for HPLC analysis. Two (2) ml of each sample (total volume of ˜2.5 ml) were injected onto a Beckman Ultrasphere ODS column (4.6 mm×150 mm) protected with a Guard-Pak C18 (Waters Millipore) pre-column. 3TC and its metabolites were eluted using a linear gradient from 100% solvent A to 100% solvent B in 25 minutes at a flow rate of 1.2 ml/minute (Solvent A: 5% acetonitrile, 70% water, 25% buffer [40 mM H3PO4, 8 mM tetrabutylammonium hydroxide, adjusted to pH 6.75 with concentrated ammonium hydroxide]; Solvent B: 40% acetonitrile, 35% water, 25% buffer). The elution of metabolites was monitored by counting radioactivity using a Flow Scintillation Analyser 500TR Series (Packard); the HPLC column effluent (1.2 ml/min) was mixed with a liquid scintillation cocktail (3 ml/min) (Ultima Flow M, Packard).
Human peripheral blood mononuclear cells (PBMC's) were obtained from healthy donors subjected to lymphopheresis for 60 min. The yield of PBMC's ranged from 1.8 to 2.6 billion cells per donor. Twenty-five (25) ml fractions of the cell suspensions (obtained by lymphopheresis) were layered on cushions (15 ml) of Lymphocyte Separation Medium (Wisent) in 50 ml tubes, which were then centrifuged at room temperature at 750×g during 25 min. The purified PBMC's were collected (on top of the Ficoll cushions) and washed 3 times in HBSS (without calcium and magnesium) (500×g, 7 min. at room temperature). The cells were resuspended in RPMI containing 5% FBS at the cell concentration of 25×10^6 per ml. Incubations were carried out using 1 ml of PBMC's suspension per tube. […]

Molecule: Cc1cn([C@H]2C[C@H](N=[N+]=[N-])[C@@H](CO)O2)c(=O)[nH]c1=O [AZT, Zidovudine, reference compound]
- virus infection (luciferase activity) ([1]; antiviral agent alone 0.05 μM): decreased

Molecule: O.O.O.OO.OO.[K+].[OH-].[V].c1cnc2c(c1)ccc1cccnc12 [bpV[phen], K[VO(O2)2phen]0.3H2O]
- HIV-1 production (p24) [2]: dramatic decrease of HIV-1 production
- infection (luciferase activity) [3]: dose-dependent inhibition of infection
- infection (luciferase activity) [4]: dose-dependent inhibition of infection
- anti-HIV-1 efficacy (luciferase activity) ([5]; MDM): maintained over several pretreatment periods
- toxicity (MTT) (primary human MDM; 10 and 20 μM): detectable toxic effect

Molecule: K2[VO(O2)2pic].H2O [bpV[pic]]
- HIV-1 production (p24) [2]: dramatic decrease of HIV-1 production
- toxicity (MTT) (Sup-T1 cells): no toxic effect
- infection (luciferase activity) [3]: dose-dependent inhibition of infection
- infection (luciferase activity) [4]: dose-dependent inhibition of infection
- HIV-1 infection (luciferase activity) ([5]; MDM, 10 μM alone, 15 min pretreatment): inhibits HIV-1 infection
- anti-HIV-1 efficacy (luciferase activity) ([5]; MDM): maintained over several pretreatment periods
- antiviral effect in combination with 3TC ([5]; MDM, 10 μM bpV[pic] with 0.035 μM 3TC, 15 min pretreatment): additive antiviral effect
- anti-HIV-1 effect in combination with 3TC ([5]; MDM, 1, 5 and 10 μM bpV[pic] with 0.07 μM 3TC, 5 min pretreatment): dose-dependent additive anti-HIV-1 effect
- toxicity (MTT) (primary human MDM; 20 μM): toxic
- HIV-1 infection (luciferase activity) ([1]; bpV compound alone (2.5, 5, 10 μM)): inhibits HIV-1 infection
- antiviral effect in combination with 3TC ([1]; combined with 0.05 μM 3TC): greater antiviral effect
- antiviral effect in combination with AZT ([1]; combined with 0.05 μM AZT): greater antiviral effect
- formation of 3TC diphosphate [6]: decreased
- formation of 3TC triphosphate [6]: increased
- ratio of 3TC triphosphate over 3TC diphosphate [6]: consistently increases
